Values of other authors in patent US8747898B2, “Controlled release oral dosage form” (Andrx Pharmaceuticals, LLC, priority 1999, dated 2014).
Counter-ions that a name gives are not always drawn.

Tests used:
monoamine oxidase = conditions: in words
norepinephrine uptake = conditions: in words
[1] = in words
[2] = in words; remark: listed apart in the source

| SMILES | inhibition of monoamine oxidase (monoamine oxidase) | blockade of norepinephrine uptake (norepinephrine uptake) | terminal T ½ (following single doses) | mean half-life of distributive phase (two-compartment model) [h] | permeability [1] | solubility in water [2] |
| --- | --- | --- | --- | --- | --- | --- |
| CC(NC(C)(C)C)C(=O)c1cccc(Cl)c1 (stereo not drawn) [bupropion] | does not inhibit | weak blocker | about 14 hours | 3 to 4 |  |  |
| CC(NC(C)(C)C)C(=O)c1cccc(Cl)c1 (stereo not drawn) [Bupropion hydrochloride, bupropion hydrochloride] |  |  |  |  | high permeability | highly soluble |
